Tests used:
EGFR T790M/L858R [1] = target: T1, EGFR T790M/L858R (Homo sapiens (Human), UniProt P00533, L858R/T790M); assay: Omnia assay, EGFR (T790M/L858R) active enzyme; format: biochemical; details: for Ratio WT/mutant: biochemical IC50, WT EGFR vs EGFR (T790M/L858R); for IC50: [EGFR-T790M/L858R]=2.5 nM, [ATP]=20 uM, 30 min pre-incubation
Description: (§7) Kinase reactions were started with the addition of 45 μL of the ATP/Tyr-Sox peptide substrate mix and monitored every 71 seconds for 60 minutes at λex360/λem485 in a Synergy^4 plate reader from BioTek (Winooski, Vt.).

[2] = target: EGFR double mutation L858R/T790M (H1975 cells) (Homo sapiens (Human), UniProt P00533, L858R/T790M); assay: EGFR signaling immunoblot (phospho-EGFR, phospho-S6) in H1975 cells; format: cell-based; details: for Ratio WT/mutant: signaling EC50, WT EGFR (A431) vs H1975
Description: (§1) A431 human epidermoid carcinoma, H1975 human NSCLC and HCC827 human NSCLC adenocarcinoma cells were obtained from the American Type Culture Center (Manassas, Va.). A431 cells were grown in DMEM (Invitrogen, Carlsbad, Calif.) supplemented with 10% FBS (HyClone, South Logan, Utah) and 1% Penicillin-Streptomycin (P/S, Lonza, Walkersville, Md.).
(§2) All primary antibodies were obtained from Cell Signaling (Danvers, Mass.) and used at 1:1000. Secondary antibodies were used at 1:10,000. Goat anti-mouse IgG IRDye 800CW antibody was obtained from LiCor Biosciences (Lincoln, Nebr.) and goat anti-rabbit IgG Alexa Fluor 680 was obtained from Invitrogen.
(§3) Cells were grown in 12-well plates (Corning, Coring, N.Y.) to 90% confluence and then incubated in low-serum (0.1% FBS) media for 16-18 hr. […] A431 cells were then stimulated with 50 ng/ml EGF (Peprotech, Rocky Hill, N.J.) for 15 min. After treatment, cell monolayers were washed with cold PBS (Invitrogen) and immediately lysed by scrapping into 60 uL cold Cell Extraction Buffer (Invitrogen) supplemented with Complete Protease inhibitors (Roche, Indianapolis, Ind.) and PhosphoSTOP (Roche) phosphatase inhibitors.
(§4) Phospho-protein signals were quantitated using Odyssey Infrared Imaging (Li-Cor Biosciences).
(§5) Blots were normalized as indicated above. […] Normalized data was fitted using a sigmoidal curve analysis program (Graph Pad Prism version 5) with variable Hill slope to determine the EC50 values.

[3] = target: EGFR delE746-A750 mutation (HCC827 cells) (Homo sapiens (Human), UniProt P00533, DEL746-750); assay: EGFR signaling immunoblot in HCC827 cells; format: cell-based; details: for Ratio WT/mutant: signaling EC50, WT EGFR (A431) vs HCC827
Description: as §1, §2, §3, §4, §5

pEGFR in H1975 cells = pEGFR in H1975 cells (Homo sapiens (Human), UniProt P00533, L858R/T790M); details: 500 nM for 1 hr, washout up to 24 hr, FIG. 3
EGFR T790M/L858R [4] = target: T1, EGFR T790M/L858R; details: for covalent modification of the protein: intact protein MS, I-1 within 30 minutes
WT EGFR (A431 cells) = WT EGFR (A431 cells) (Homo sapiens (Human), UniProt P00533); assay: EGFR signaling immunoblot (phospho-EGFR, phospho-S6) in A431 cells; format: cell-based; details: FIG. 2
Description: as §1, §2, §3, §4
Blots were normalized as indicated above. […]

[5] = test system: H1975 cells (EGFR L858R/T790M); assay: Cell proliferation (CellTiter Glo), H1975 cells; format: cell-based, human; details: GI50, WT EGFR (A431) vs H1975
Description: as §1
(§6) Growth inhibition (GI50) values were determined by Graph Pad Prism.

[6] = test system: HCC827 cells (EGFR delE746-A750); assay: Cell proliferation (CellTiter Glo), HCC827 cells; format: cell-based, human; details: GI50, WT EGFR (A431) vs HCC827
Description: as §1, §6

EGFR-WT = EGFR-WT (Homo sapiens (Human), UniProt P00533); assay: Omnia assay, EGFR (WT) active enzyme; format: biochemical; details: [EGFR-WT]=5 nM, [ATP]=15 uM, 30 min pre-incubation
Description: as §7

[7] = 10-fold excess of compound, MALDI, FIG. 4

## C=CC(=O)Nc1cccc(Nc2nc(Nc3ccccc3OC)ncc2C(F)(F)F)c1 [Compound I-1, N-(3-(2-(2-methoxyphenylamino)-5-(trifluoromethyl)pyrimidin-4-ylamino)phenyl)acrylamide]
EGFR T790M/L858R [1]
  Ratio WT/mutant: >50
[2]
  Ratio WT/mutant: >50
[3]
  Ratio WT/mutant: >50
pEGFR in H1975 cells
  duration of action after washout (pEGFR): prolonged duration of action
EGFR T790M/L858R [4]; [7]
  mass shift: 488 Da
  mass shift relative to compound mass: 113%
EGFR T790M/L858R [4]
  covalent modification of the protein: completely modifies

## C=CC(=O)Nc1cccc(Oc2nc(Nc3ccccc3OC)ncc2C(F)(F)F)c1 [Compound I-2, N-(3-(2-(2-methoxyphenylamino)-5-(trifluoromethyl)pyrimidin-4-yloxy)phenyl)acrylamide]
pEGFR in H1975 cells
  duration of action after washout (pEGFR): prolonged duration of action
EGFR T790M/L858R [4]
  covalent modification of the protein: covalently modify the protein

## C=CC(=O)Nc1cccc(Nc2nc(Nc3ccc(OC)c(OC)c3OC)ncc2Br)c1 [Compound I-5, N-(3-(5-bromo-2-(2,3,4-trimethoxyphenylamino)pyrimidin-4-ylamino)phenyl)acrylamide]
EGFR T790M/L858R [1]
  Ratio WT/mutant: >45
[2]
  Ratio WT/mutant: >50

## C=CC(=O)Nc1cccc(Oc2nc(Nc3cccc(OC)c3OC)ncc2Br)c1 [Compound I-6, N-(3-(5-bromo-2-(2,3-dimethoxyphenylamino)pyrimidin-4-yloxy)phenyl)acrylamide]
EGFR T790M/L858R [1]
  Ratio WT/mutant: >45

## C=CC(=O)Nc1cccc(Oc2nc(Nc3ccc(OC)c(OC)c3OC)ncc2Cl)c1 [Compound I-7, N-(3-(5-chloro-2-(2,3,4-trimethoxyphenylamino)pyrimidin-4-yloxy)phenyl)acrylamide]
EGFR T790M/L858R [1]
  Ratio WT/mutant: >25
WT EGFR (A431 cells)
  WT-EGFR sparing: completely WT-EGFR sparing
[2]; H1975 cells, FIG. 1 and FIG. 2
  inhibition of pEGFR and downstream S6 ribosomal protein: inhibiting pEGFR and its downstream target S6 Ribosomal protein
[2]
  Ratio WT/mutant: >50
[5]
  Ratio WT/mutant: >10
[6]
  Ratio WT/mutant: >15
EGFR T790M/L858R [4]
  covalent modification of the protein: covalently modify the protein

## C=CC(=O)Nc1cccc(Oc2nc(Nc3ccc(OC)c(OC)c3OC)ncc2C(F)(F)F)c1 [Compound I-10, N-(3-(5-(trifluoromethyl)-2-(2,3,4-trimethoxyphenylamino)pyrimidin-4-yloxy)phenyl)acrylamide]
EGFR T790M/L858R [1]
  Ratio WT/mutant: >50
[2]
  Ratio WT/mutant: >50

## C=CC(=O)Nc1cccc(Nc2nc(Nc3ccc(OC)c(OC)c3OC)ncc2C(F)(F)F)c1 [Compound I-11, N-(3-(5-(trifluoromethyl)-2-(2,3,4-trimethoxyphenylamino)pyrimidin-4-ylamino)phenyl)acrylamide]
EGFR T790M/L858R [1]
  Ratio WT/mutant: >25
[2]
  Ratio WT/mutant: >50
[3]
  Ratio WT/mutant: >5

## C=CC(=O)Nc1cccc(Nc2nc(Nc3cccc(OC)c3OC)ncc2Br)c1 [Compound I-14, N-(3-(5-bromo-2-(2,3-dimethoxyphenylamino)pyrimidin-4-ylamino)phenyl)acrylamide]
EGFR-WT
  IC50: 300 to 1000 nM
EGFR T790M/L858R [1]
  IC50: 1 to 10 nM
  Ratio WT/mutant: >50

## C=CC(=O)Nc1cccc(Oc2nc(Nc3cccc(OC)c3OC)ncc2Cl)c1 [Compound I-17, N-(3-(5-chloro-2-(2,3-dimethoxyphenylamino)pyrimidin-4-yloxy)phenyl)acrylamide]
EGFR-WT
  IC50: 300 to 1000 nM
EGFR T790M/L858R [1]
  IC50: 10 to 100 nM
  Ratio WT/mutant: >35
[3]; HCC827 cells, signaling, 1 hr
  EC50: 500 to 1000 nM

## C=CC(=O)Nc1cccc(Nc2nc(Nc3ccccc3OC)ncc2Cl)c1 [Compound I-18, N-(3-(5-chloro-2-(2-methoxyphenylamino)pyrimidin-4-ylamino)phenyl)acrylamide]
EGFR T790M/L858R [1]
  Ratio WT/mutant: >30

## C=CC(=O)Nc1cccc(Oc2nc(Nc3ccccc3OC)ncc2F)c1 [Compound I-19, N-(3-(5-fluoro-2-(2-methoxyphenylamino)pyrimidin-4-yloxy)phenyl)acrylamide]
EGFR T790M/L858R [1]
  Ratio WT/mutant: >10

## C=CC(=O)Nc1cccc(Nc2nc(Nc3ccc(OC)cc3OC)ncc2Br)c1 [Compound I-20, N-(3-(5-bromo-2-(2,4-dimethoxyphenylamino)pyrimidin-4-ylamino)phenyl)acrylamide]
EGFR T790M/L858R [1]
  Ratio WT/mutant: >45

## C=CC(=O)Nc1cccc(Nc2nc(Nc3ccc(OC)cc3OC)ncc2Cl)c1 [Compound I-21, N-(3-(5-chloro-2-(2,4-dimethoxyphenylamino)pyrimidin-4-ylamino)phenyl)acrylamide]
EGFR T790M/L858R [1]
  Ratio WT/mutant: >50
[2]
  Ratio WT/mutant: >5
